From ChEMBL document CHEMBL3351769, “Poly-guanidinoethylphenylethers organised around a benzene ring: synthesis and evaluation of their antibacterial and cytotoxic properties” (Bioorg Med Chem Lett, 2014) come the findings set out here.

One data set concerns Escherichia coli. Put plainly: Antimicrobial activity against Escherichia coli ATCC 25922 by broth microdilution method. The format is functional. In general terms: Broth dilution looks for growth in wells or tubes with falling amounts of substance.
For the next data set, the system named is Pseudomonas aeruginosa. Nature of the data set: Antimicrobial activity against Pseudomonas aeruginosa ATCC 27853 by broth microdilution method. It counts as functional.
In data set [1] the test system is Staphylococcus aureus. Nature of the data set: Antimicrobial activity against Staphylococcus aureus ATCC 25923 by broth microdilution method. It counts as functional.
Data set [2] has as its system Staphylococcus aureus. Nature of the data set: Antimicrobial activity against Staphylococcus aureus ATCC 29213 by broth microdilution method. The format is functional.
In a further data set the test system is Enterococcus faecalis. Put plainly: Antimicrobial activity against Enterococcus faecalis ATCC 29212 by broth microdilution method. It counts as functional.
In data set [3] the test system is MRC5. Nature of the data set: Cytotoxicity against human MRC5 cells after 24 hrs by MTT assay. It counts as cell-based. The conditions noted are these: MRC5, 24 h. On the technique in general: Tetrazolium dyes change colour on reduction, which living cells bring about.
The subject of data set [4] is MRC5. Nature of the data set: Cytotoxicity against human MRC5 cells after 48 hrs by MTT assay. Conditions: MRC5, 48 h. It counts as cell-based.
Data set [5] in a line: Selectivity index, ratio of IC50 for human MRC5 cells after 24 hrs to MIC for Escherichia coli ATCC 25922. Conditions: read-out: Selectivity Index. It counts as toxicity, cell-based.
Data set [6] in a line: Selectivity index, ratio of IC50 for human MRC5 cells after 24 hrs to MIC for Pseudomonas aeruginosa ATCC 27853. The format is toxicity, cell-based. The conditions noted are these: read-out: Selectivity Index.
Data set [7] is described as follows: Selectivity index, ratio of IC50 for human MRC5 cells after 24 hrs to MIC for Staphylococcus aureus ATCC 25923. Conditions: read-out: Selectivity Index. It counts as toxicity, cell-based.
Data set [8] can be described thus: Selectivity index, ratio of IC50 for human MRC5 cells after 24 hrs to MIC for Staphylococcus aureus ATCC 29213. It counts as toxicity, cell-based. Conditions: read-out: Selectivity Index.
Data set [9] can be described thus: Selectivity index, ratio of IC50 for human MRC5 cells after 24 hrs to MIC for Enterococcus faecalis ATCC 29212. The format is toxicity, cell-based. Conditions: read-out: Selectivity Index.

For `N=C(N)NCCc1ccc(OCc2ccccc2)cc1.O=C(O)C(F)(F)F`, the MIC (commonly the smallest concentration in the dilution series that meets the test's criterion for growth inhibition) is 32 µg/mL with Escherichia coli; 64 µg/mL against Pseudomonas aeruginosa; 16 µg/mL against Staphylococcus aureus [1]; 8 µg/mL in the data set on Staphylococcus aureus [2]; 128 µg/mL with Enterococcus faecalis. Further, the IC50 (in general, the concentration that gives 50% inhibition) amounted to 26 µg/mL in the data set with MRC5 [3] and 19 µg/mL with MRC5 [4]. Further, the selectivity ratio at 24 h in data set [5] was determined as 0.8; in data set [6], 0.4; in data set [7], 1.5; in [8], 3; in [9], 0.2.

Take `N=C(N)NCCc1ccc(OCc2ccccc2COc2ccc(CCNC(=N)N)cc2)cc1.O=C(O)C(F)(F)F`: the MIC was 8 µg/mL with Escherichia coli; 16 µg/mL against Pseudomonas aeruginosa; < 1 µg/mL against Staphylococcus aureus [1]; < 1 µg/mL in the data set with Staphylococcus aureus [2]; 8 µg/mL against Enterococcus faecalis. Moreover, the IC50 amounted to 100 µg/mL in the data set with MRC5 [3] and 41 µg/mL with MRC5 [4]. The selectivity ratio at 24 h in data set [5] is 12.5; in data set [6], 6.2; in data set [7], > 100; in [8], > 100; in data set [9], 12.5.

For the compound `N=C(N)NCCc1ccc(OCc2cccc(COc3ccc(CCNC(=N)N)cc3)c2)cc1.O=C(O)C(F)(F)F`, the MIC with Escherichia coli is 16 µg/mL; in the data set with Pseudomonas aeruginosa it was 32 µg/mL; in the data set with Staphylococcus aureus [1] it was < 1 µg/mL; against Staphylococcus aureus [2] it was 2 µg/mL; in the data set on Enterococcus faecalis, 16 µg/mL. Also, the figures for the IC50 in the data set on MRC5 [3] and in the data set with MRC5 [4] were 34.5 µg/mL and 29.7 µg/mL, respectively. Further, the selectivity ratio at 24 h in data set [5] is 2; in data set [6], 1; in data set [7], > 34.5; in data set [8], 17; in [9] it was 2.

Turning to `N=C(N)NCCc1ccc(OCc2ccc(COc3ccc(CCNC(=N)N)cc3)cc2)cc1.O=C(O)C(F)(F)F`, the minimal inhibitory concentration (MIC) against Escherichia coli was determined as 4 µg/mL; in the data set with Pseudomonas aeruginosa, 4 µg/mL; with Staphylococcus aureus [1], 1 µg/mL; in the data set on Staphylococcus aureus [2], 1 µg/mL; with Enterococcus faecalis, 2 µg/mL. The IC50 with MRC5 [3] worked out at 21 µg/mL; in the data set on MRC5 [4], 12.7 µg/mL. The selectivity ratio at 24 h in data set [5] turned out to be 5.25; in data set [6] it was 5.25; in data set [7] it was 21; in data set [8], 21; in data set [9], 10.5.

Turning to `N=C(N)NCCc1ccc(OCc2cc(COc3ccc(CCNC(=N)N)cc3)cc(COc3ccc(CCNC(=N)N)cc3)c2)cc1.O=C(O)C(F)(F)F`, the MIC is < 1 µg/mL against Escherichia coli; 16 µg/mL against Pseudomonas aeruginosa; < 1 µg/mL in the data set on Staphylococcus aureus [1]; < 1 µg/mL in the data set on Staphylococcus aureus [2]; 8 µg/mL with Enterococcus faecalis. Further, the IC50 in the data set with MRC5 [3] was determined as 39.5 µg/mL; in the data set with MRC5 [4] it was 30 µg/mL. Besides, the selectivity ratio at 24 h in [5] was > 39.5; in [6], 2.5; in [7], > 39.5; in [8], > 39.5; in [9], 5.

With `N=C(N)NCCc1ccc(OCc2cc(COc3ccc(CCNC(=N)N)cc3)c(COc3ccc(CCNC(=N)N)cc3)cc2COc2ccc(CCNC(=N)N)cc2)cc1.O=C(O)C(F)(F)F`, the MIC was 4 µg/mL against Escherichia coli; 8 µg/mL against Pseudomonas aeruginosa; 2 µg/mL in the data set with Staphylococcus aureus [1]; < 1 µg/mL against Staphylococcus aureus [2]; 4 µg/mL in the data set on Enterococcus faecalis. The values for the 50% inhibitory concentration (IC50) with MRC5 [3] and in the data set on MRC5 [4] were 49 µg/mL and 38.5 µg/mL, respectively. The selectivity ratio at 24 h was 12 in data set [5]; 6 in [6]; 24.5 in data set [7]; > 49 in data set [8]; 12.2 in data set [9].

As for `N=C(N)NCCc1ccc(OCc2c(COc3ccc(CCNC(=N)N)cc3)c(COc3ccc(CCNC(=N)N)cc3)c(COc3ccc(CCNC(=N)N)cc3)c(COc3ccc(CCNC(=N)N)cc3)c2COc2ccc(CCNC(=N)N)cc2)cc1.O=C(O)C(F)(F)F`, the MIC against Escherichia coli worked out at 16 µg/mL; with Pseudomonas aeruginosa it was 16 µg/mL; in the data set with Staphylococcus aureus [1], 8 µg/mL; in the data set with Staphylococcus aureus [2] it was 8 µg/mL; against Enterococcus faecalis, 8 µg/mL. Besides, the figures for the IC50 with MRC5 [3] and in the data set on MRC5 [4] were 26 µg/mL and 30 µg/mL, respectively. Further, the selectivity ratio at 24 h in data set [5] came to 1.5; in data set [6] it was 1.5; in data set [7], 3; in data set [8], 3; in data set [9] it was 3.
